# Source: ChEMBL document CHEMBL5532635, “The role of natural anti-parasitic guided development of synthetic drugs for leishmaniasis” (Eur J Med Chem, 2023)
# How the values were obtained:
# Leishmania major [1] = experiment: Antileishmanial activity against Leishmania major promastigotes incubated for 24 hrs measured by alamar blue staining based fluorescence analysis; format: functional, organism-based
# Leishmania infantum [2] = experiment: Antileishmanial activity against Leishmania infantum MCAN/ES/89/IPZ229/1/89 axenic amastigotes assessed as reduction in parasite viability treated for 24 hrs by PI staining based flow cytometry; format: functional, organism-based; settings: MCAN/ES/89/IPZ229/1/89, 24 h
# Leishmania major [3] = experiment: Antileishmanial activity against Leishmania major promastigotes assessed as parasite growth inhibition incubated for 24 hrs by Alamar blue staining based assay; format: functional, organism-based
# Leishmania donovani [4] = experiment: Antileishmanial activity against Leishmania donovani promastigotes assessed as inhibition of parasite growth measured after 24 hrs by Alamar blue based analysis; format: functional, organism-based
# Leishmania donovani [5] = experiment: Antileishmanial activity against Leishmania donovani promastigotes assessed as reduction in parasite growth; format: functional, organism-based
# Leishmania amazonensis [6] = experiment: Antileishmanial activity against Leishmania amazonensis MHOM/BR/77/LTB001 assessed as parasite growth inhibition; format: functional, organism-based
# Leishmania amazonensis [7] = experiment: Antileishmanial activity against Leishmania amazonensis amastigotes assessed as reduction in parasite growth; format: functional, organism-based
# Leishmania amazonensis [8] = experiment: Antileishmanial activity against Leishmania amazonensis IFLA/BR/1967/PH8 amastigotes infected in mouse peritoneal macrophage assessed as inhibition of parasite growth measured after 24 hrs by Giemsa staining based analysis; format: functional, organism-based; settings: IFLA/BR/1967/PH8, Peritoneal macrophage cell
# Leishmania donovani [9] = experiment: Antileishmanial activity against Leishmania donovani intracellular amastigotes assessed as parasite growth inhibition; format: functional, organism-based
# Leishmania amazonensis [10] = experiment: Antileishmanial activity against Leishmania amazonensis amastigotes assessed as reduction in parasite growth measured after 24 hrs by MTT assay; format: functional, organism-based
# Leishmania infantum [11] = experiment: Antileishmanial activity against Leishmania infantum MCAN/ES/89/IPZ229/1/89 promastigote measured after 72 hrs by MTT assay; format: functional, organism-based; settings: MCAN/ES/89/IPZ229/1/89, 72 h
# Leishmania amazonensis [12] = experiment: Antileishmanial activity against Leishmania amazonensis promastigotes assessed as inhibition of parasite growth measured after 72 hrs by alamar blue assay; format: functional, organism-based
# Leishmania infantum [13] = experiment: Antileishmanial activity against Leishmania infantum MHOM/BR/1972/BH46 promastigotes assessed as reduction in parasite growth incubated for 24 hrs by PI staining based flow cytometry analysis; format: functional, organism-based; settings: MHOM/BR/1972/BH46, 24 h
# Leishmania amazonensis [14] = experiment: Antileishmanial activity against Leishmania amazonensis MHOM/BR/71973/M2269 promastigotes assessed as reduction in parasite growth incubated for 24 hrs by PI staining based flow cytometry analysis; format: functional, organism-based; settings: MHOM/BR/71973/M2269, 24 h
# Leishmania major [15] = experiment: Antileishmanial activity against Leishmania major promastigotes assessed as inhibition of parasite growth incubated for 48 hrs by resazurin dye based assay; format: functional, organism-based
# Leishmania major [16] = experiment: Antileishmanial activity against Leishmania major IR-173 promastigotes assessed as inhibition of parasite growth incubated for 48 hrs by resazurin dye based assay; format: functional, organism-based; settings: IR-173, 48 h
# Leishmania major [17] = experiment: Antileishmanial activity against Leishmania major IR-173 promastigotes assessed as inhibition of parasite viability incubated for 72 hrs by resazurin/alamar blue fluorometric assay; format: functional
# Leishmania tropica [18] = experiment: Antileishmanial activity against Leishmania tropica promastigotes incubated for 24 hrs measured by alamar blue staining based fluorescence analysis; format: functional, organism-based
# Leishmania tropica [19] = experiment: Antileishmanial activity against Leishmania tropica amastigotes incubated for 24 hrs measured by alamar blue staining based fluorescence analysis; format: functional, organism-based
# Arginase = Arginase (Leishmania amazonensis, UniProt O96394); experiment: Inhibition of Leishmania amazonensis Arginase expressed in Escherichia coli BL21 (DE3)
# Leishmania amazonensis [20] = experiment: Antileishmanial activity against Leishmania amazonensis promastigotes assessed as reduction in parasite growth measured after 24 hrs by MTT assay; format: functional, organism-based
# [21] = Cytotoxicity against mouse RAW264.7 cells assessed as reduction in cell viability measured after 24 hrs by CCK8 assay; format: toxicity, cell-based
# Leishmania infantum [22] = experiment: Antileishmanial activity against Leishmania infantum MHOM/BR/70/BH46 promastigotes assessed as inhibition of parasite growth incubated for 72 hrs by Neubauer chamber based analysis; format: functional, organism-based; settings: MHOM/BR/70/BH46, 72 h
# Leishmania donovani [23] = experiment: Antileishmanial activity against Leishmania donovani promastigotes assessed as reduction in parasite growth incubated for 72 hrs by MTT assay; format: functional, organism-based
# [24] = Antileishmanial activity against Leishmania donovani MHOM/IN/95/9515 promastigotes assessed as inhibition of parasite viability incubated for 72 hrs by resazurin/alamar blue fluorometric assay; format: functional
structure (smiles),measurement,setting,value
CCOC(=O)C1=C(C)NC(C)=C(C(=O)OCC)C1c1cccc(Cl)c1,EC50,Leishmania major [1],15.5 µM
Cn1c(=O)c2c(c3ccccc31)OC(C)(C)[C@H]1CC[C@@](C)(O)[C@H](Cl)[C@H]21,IC50,Leishmania infantum [2],> 6.25 µM
C[C@@H]1CC[C@@]2(C)C(C(=O)O)=CCC[C@@H]2[C@@]1(C)CCc1ccoc1,IC50,Leishmania major [3],10 µM
same,IC50,Leishmania donovani [4],10 µM
CN[C@@H]1C[C@H]2O[C@@](C)([C@@H]1OC)n1c3ccccc3c3c4c(c5c6ccccc6n2c5c31)C(=O)NC4=O,IC50,Leishmania donovani [5],0.001 µM
same,IC50,Leishmania amazonensis [6],0.007 µM
same,IC50,Leishmania amazonensis [7],0.0002 µM
O=C(CC[Se]c1ccnc2cc(Cl)ccc12)Nc1ccc([N+](=O)[O-])cc1,IC50,Leishmania amazonensis [8],10.8 µM
CCCCCCCCNCc1ccc2c(c1)C(=O)CC(C)(C)O2,IC50,Leishmania donovani [9],24.6 µM
CCCc1cc(OC)c2oc(=O)c(C(=O)c3ccc([N+](=O)[O-])cc3)cc2c1,IC50,Leishmania amazonensis [10],18 µM
same,IC50,Leishmania infantum [11],6.8 µM
same,IC50,Leishmania amazonensis [12],18 µM
same,IC50,Leishmania infantum [13],3.53 µM
same,IC50,Leishmania amazonensis [14],26.7 µM
CCC[C@H]1CC(=O)Oc2c(C(=O)[C@H](C)[C@H](C)O)c(O)c3c(c21)OC(C)(C)C=C3,IC50,Leishmania major [15],29.1 µg/mL
same,IC50,Leishmania major [16],36.5 µg/mL
O=C(Cn1cnc2ccccc2c1=O)N1CCC2(CC1)OCCO2,Activity,Leishmania major [17],35%
Cc1ccccc1C(=O)N/N=C1\C(=O)N(CC(O)COc2cc(=O)oc3ccccc23)c2ccccc21 (configuration not stated),IC50,Leishmania tropica [18],3.73 µM
same,IC50,Leishmania tropica [19],4.13 µM
O=C(CCc1ccc(O)c(O)c1)O[C@H](Cc1ccc(O)cc1)C(=O)O,IC50,Arginase,5.5 µM
COc1ccc(C(O)C(C)Oc2ccc(C3OC(c4ccc(OC(C)C(O)c5ccc(OC)c(OC)c5)c(OC)c4)C(C)C3C)cc2OC)cc1OC (configuration not stated),IC50,Leishmania amazonensis [10],20.4 µg/mL
same,IC50,Leishmania amazonensis [20],35.4 µg/mL
O=C(/C=C/c1ccc(F)cc1)c1ccccc1Cl,CC50 at 24 h,[21],479 µM
CCc1ccc(NC(=S)N/N=C\c2c[nH]c3c(C)cc(Br)cc23)cc1,IC50,Leishmania infantum [22],4.36 µM
COc1ccc2nc(C(=O)NCCCN(C)C)ccc2c1,IC50,Leishmania amazonensis [8],5.67 µM
CCOC(=O)C1=CNC(=S)NC1c1ccc(C)cc1 (configuration not stated),IC50,Leishmania donovani [23],28.3 µg/mL
O=C(Cn1cnc2cc(Cl)ccc2c1=O)n1cnc2cc(Cl)ccc2c1=O,Activity,[24],29%
